The experiment deals with T1, HDAC6 (Homo sapiens, UniProt Q9UBN7).
T1 sequence (Q9UBN7 1-1215): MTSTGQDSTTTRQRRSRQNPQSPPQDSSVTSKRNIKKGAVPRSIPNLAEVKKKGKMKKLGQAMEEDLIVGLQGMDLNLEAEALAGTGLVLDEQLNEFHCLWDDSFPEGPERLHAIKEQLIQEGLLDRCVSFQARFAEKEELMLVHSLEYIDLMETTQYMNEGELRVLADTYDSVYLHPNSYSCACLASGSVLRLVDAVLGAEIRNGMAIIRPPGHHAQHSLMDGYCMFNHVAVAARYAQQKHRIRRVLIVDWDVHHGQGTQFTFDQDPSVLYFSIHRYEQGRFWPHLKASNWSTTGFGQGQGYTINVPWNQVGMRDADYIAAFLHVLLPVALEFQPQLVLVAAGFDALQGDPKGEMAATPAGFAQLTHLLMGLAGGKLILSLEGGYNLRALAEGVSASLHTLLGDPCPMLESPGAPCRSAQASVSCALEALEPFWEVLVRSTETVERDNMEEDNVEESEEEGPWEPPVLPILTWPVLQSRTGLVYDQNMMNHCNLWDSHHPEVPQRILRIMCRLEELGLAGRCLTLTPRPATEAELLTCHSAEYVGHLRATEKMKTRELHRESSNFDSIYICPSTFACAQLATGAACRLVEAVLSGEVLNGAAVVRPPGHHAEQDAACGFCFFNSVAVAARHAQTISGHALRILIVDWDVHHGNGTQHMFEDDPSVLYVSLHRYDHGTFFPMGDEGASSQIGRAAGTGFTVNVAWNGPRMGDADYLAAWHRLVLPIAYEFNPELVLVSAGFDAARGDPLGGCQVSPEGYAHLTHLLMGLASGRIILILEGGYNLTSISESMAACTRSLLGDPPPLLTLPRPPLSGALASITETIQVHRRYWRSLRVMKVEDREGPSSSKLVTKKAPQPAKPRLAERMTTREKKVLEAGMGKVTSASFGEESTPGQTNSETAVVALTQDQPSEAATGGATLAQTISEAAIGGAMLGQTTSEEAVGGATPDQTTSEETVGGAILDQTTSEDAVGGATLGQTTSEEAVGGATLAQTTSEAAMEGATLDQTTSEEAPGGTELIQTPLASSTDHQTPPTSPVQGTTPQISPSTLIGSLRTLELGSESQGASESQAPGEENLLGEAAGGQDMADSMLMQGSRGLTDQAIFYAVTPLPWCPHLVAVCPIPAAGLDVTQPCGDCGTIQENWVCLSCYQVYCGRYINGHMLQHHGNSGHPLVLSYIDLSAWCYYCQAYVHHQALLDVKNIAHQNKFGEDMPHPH
The experiment is described as follows: Inhibition of purified HDAC6, Boc-Lys(Ac)-AMC substrate. On the set-up: purchased Cayman Chemical. The note with it: 1 h 37 °C. It counts as biochemical.

One may read the IC50 as the point on the concentration scale where inhibition reaches its midpoint. Low values mean greater potency in that assay, high ones weaker potency in that assay.

Compound `CCC(CC)(c1ccc(OCCCCCC(=O)NO)cc1)c1ccc(OCC(O)C(C)(C)C)c(C)n1` (stereo not shown) [AM-193] gave an IC50 of 3.09 µM.

For the origin of these results see paper PMC12517324, “Hyperagonism of a Vitamin D Receptor Agonist/Histone Deacetylase Inhibitor Hybrid Molecule” (Journal of Medicinal Chemistry, 2025).
